The results in this text go back to paper PMC5909954 (Toxicology, 2018).

In one assay the target is Complex I. In words: immunocapture-based OXPHOS activity assay. It counts as biochemical, Bos taurus.
Assay [1] has as its target Complex V (F1FO ATP synthase). Put plainly: immunocapture-based OXPHOS activity assay. It counts as biochemical, Bos taurus.

As to `C/C(O)=C(\C#N)C(=O)Nc1ccc(C(F)(F)F)cc1` [A77 1726, 2-Cyano-3-hydroxy-N-[4-(trifluoromethyl)phenyl]-2-butenamide], the half-maximal inhibitory concentration (IC50) at Complex I came to 229 µM; in assay [1], 63.7 µM.
Regarding `Cc1oncc1C(=O)Nc1ccc(C(F)(F)F)cc1` [leflunomide], the IC50 against Complex I turned out to be 200 µM; in assay [1] it was 35 µM.

The IC50 is the concentration needed to halve the response being measured. A higher IC50 goes with weaker potency.
